Entries after “also recorded” stand apart in the source; their conditions may differ. Where a name gives a salt, the structure may show the parent alone. Read-outs that look alike come from different tables or passages of the source. Blank lines part the entries; values can stand above or below the compound they belong to.
What was measured:
[1] = tested on: ovariectomized (ovex) rats; assay: Uterine wet weight in ovariectomized rats; details: for % Uterine Weight Gain: relative to estrogen treated ovex animals
Procedure: (§1) One week after arrival, the rats underwent bilateral ovariectomy under anesthesia (44 mg/kg Ketamine and 5 mg/kg Xylazine (Butler, Indianapolis, Ind.) administered intramuscularly). Treatment with vehicle, estrogen, or a compound of formula I was initiated on the day of surgery following recovery from anesthesia. Oral dosage was by gavage in 0.5 mL of 1% carboxymethylcellulose (CMC). Body weight was determined at the time of surgery and weekly thereafter and the dosage was adjusted with changes in body weight. Vehicle or estrogen treated ovariectomized (ovex) rats and non-ovariectomized (intact) rats were evaluated in parallel with each experimental group to serve as negative and positive controls.
(§2) The rats were treated daily for 35 days (6 rats per treatment group) and sacrificed by decapitation on the 36th day. […] At the time of sacrifice, the uteri were removed, dissected free of extraneous tissue, and the fluid contents were expelled before determination of wet weight in order to confirm estrogen deficiency associated with complete ovariectomy. […] The uteri were then placed in 10% neutral buffered formalin to allow for subsequent histological analysis.

[2] = tested on: ovariectomized (ovex) rats; assay: Ovariectomized rat model of post-menopausal osteoporosis: femur density by single photon absorptiometry; type: in vivo, Sprague Dawley rats; details: for inhibition in vivo at 1 mg/kg: Rattus norvegicus, read-out: % Inhibition of Bone Loss; for prevention of bone loss (femur density), in words: oral
Procedure: In the examples illustrating the methods, a model of post-menopausal osteoporosis was used in which effects of different treatments upon femur density were determined.
Seventy-five day old female Sprague Dawley rats (weight range of 225 to 275 g) were obtained from Charles River Laboratories (Portage, Mich.). They were housed in groups of 3 and had ad libitum access to food (calcium content approximately 1%) and water. Room temperature was maintained at 22.2°±1.7° C. with a minimum relative humidity of 40%. The photoperiod in the room was 12 hours light and 12 hours dark.
The right femurs were excised and scanned at the distal metaphysis 1 mm from the patellar groove with single photon absorptiometry. Results of the densitometer measurements represent a calculation of bone density as a function of the bone mineral content and bone width.

[3] = tested on: ovariectomized (ovex) rats; details: rat, in vivo, po
Procedure: as §1, §2

[4] = tested on: uterine uptake of tritiated-estradiol; assay: Laboratory animal studies: uterine uptake of tritiated-estradiol and uterotrophic response to estradiol; details: laboratory animals; conditions where raloxifene was extensively conjugated in plasma
From the text: Experiments were undertaken to address the bioavailability issue in laboratory animals where biological activity could be assessed.

[5] = Oral administration to human subjects in the clinic: parent compound in serum
ovariectomized rats = assay: Uterine histological parameters of estrogenicity in ovariectomized rats; details: for Epithelial Height / Myometrial Thickness / Stromal Eosinophils / Stromal Expansion: Table 6, ovex rats, 1 mg/kg
Procedure: A relatively narrow range of doses of raloxifene and tamoxifen was administered orally to ovariectomized rats as in the previous example.
Increases in epithelial height are a sign of estrogenicity of therapeutic agents and may be associated with increased incidence of uterine cancer.
Estrogenicity was also assessed by evaluating the adverse response of eosinophil infiltration into the stromal layer of the uterus (Table 6).

[6] = Love et al. 1992; Turner et al. 1988; cited from earlier work
[7] = ovex rats, 1 mg/kg oral, relative to estrogen treated ovex animals
[8] = Table 5, ovex rats, 1 mg/kg oral

SMILES: Cc1ccc(C(=O)Oc2ccc(-c3sc4cc(OC(=O)c5ccc(C)cc5)ccc4c3C(=O)c3ccc(OCCN4CCCCC4)cc3)cc2)cc1 [Compound 11, 6-(4-Methylbenzoyloxy)-2-[4-(4-methylbenzoyloxy)-phenyl]benzo[b]thien-3-yl[4-[2-(piperidin-1-yl)ethoxy]-phenyl]methanone Hydrochloride]
% Uterine Weight Gain ([1]; ovex rats, 1 mg/kg oral): 28% | inhibition in vivo at 1 mg/kg [2, 7]: 26%

SMILES: CC(C)(C)C(=O)Oc1ccc(-c2sc3cc(OC(=O)C(C)(C)C)ccc3c2C(=O)c2ccc(OCCN3CCCCC3)cc2)cc1.Cl [Compound 8, 6-(2,2-Dimethylpropanoyloxy)-2-[4-(2,2-dimethyl-propanoyloxy)phenyl]benzo[b]thien-3-yl-[4-[2-(piperidin-1-yl)ethoxy]phenyl]methanone Hydrochloride]
% Uterine Weight Gain ([1]; ovex rats, 1 mg/kg oral): 24% | inhibition in vivo at 1 mg/kg [2, 7]: 66%

SMILES: O=C(Oc1ccc(-c2sc3cc(OC(=O)c4ccc(F)cc4)ccc3c2C(=O)c2ccc(OCCN3CCCCC3)cc2)cc1)c1ccc(F)cc1 [Compound 2, 6-(4-Fluorobenzoyloxy)-2-[4-(4-fluorobenzoyloxy)-phenyl]-benzo[b]thien-3-yl-[4-[2-(piperidin-1-yl)ethoxy)-phenyl]-methanone Hydrochloride]
% Uterine Weight Gain ([1]; ovex rats, 1 mg/kg oral): 26% | inhibition in vivo at 1 mg/kg [2, 7]: 86%

SMILES: CCCCOC(=O)Oc1ccc(-c2sc3cc(OC(=O)OCCCC)ccc3c2C(=O)c2ccc(OCCN3CCCCC3)cc2)cc1.Cl [Compound 14, 6-(n-Butoxycarbonyloxy)-2-[4(n-butoxycarbonyloxy)phenyl]-benzo[b]thien-3-yl[4-[2-(piperidin-1-yl)ethoxy]phenyl]-methanone Hydrochloride]
% Uterine Weight Gain ([1]; ovex rats, 1 mg/kg oral): 32% | inhibition in vivo at 1 mg/kg [2, 7]: 121%

SMILES: O=C(Oc1ccc(-c2sc3cc(OC(=O)c4ccccc4)ccc3c2C(=O)c2ccc(OCCN3CCCCC3)cc2)cc1)c1ccccc1 [Compound 12]
% Uterine Weight Gain ([3]; 1 mg/kg): 15% | % Inhibition of Bone Loss [2, 7]: 60%

SMILES: CC(C)(C)CC(=O)Oc1ccc(-c2sc3cc(OC(=O)CC(C)(C)C)ccc3c2C(=O)c2ccc(OCCN3CCCCC3)cc2)cc1 [Compound 10, 6-(3,3-Dimethylbutanoyloxy)-2-[4-(3,3-dimethylbutanoyloxy)-phenyl]benzo[b]thien-3-yl-[4-[2-(piperidin-1-yl)ethoxy]-phenyl]methanone Hydrochloride]
% Uterine Weight Gain ([1]; ovex rats, 1 mg/kg oral): 24% | inhibition in vivo at 1 mg/kg [2, 7]: 52%

SMILES: CCCC(=O)Oc1ccc(-c2sc3cc(OC(=O)CCC)ccc3c2C(=O)c2ccc(OCCN3CCCCC3)cc2)cc1 [Compound 6, 6-(n-Butanoyloxy)-2-[4-(n-butanoyloxy)phenyl]benzo[b]thien-3-yl-[4-[2-(piperidin-1-yl)ethoxy]phenyl]methanone Hydrochloride]
% Uterine Weight Gain ([1]; ovex rats, 1 mg/kg oral): 19% | inhibition in vivo at 1 mg/kg [2, 7]: 24%

Further lines, with some results ahead:

% Uterine Weight Gain ([1]; ovex rats, 1 mg/kg oral): 17%
SMILES: COCC(=O)Oc1ccc(-c2sc3cc(OC(=O)COC)ccc3c2C(=O)c2ccc(OCCN3CCCCC3)cc2)cc1 [Compound 18, 6-(Methoxyethanoyloxy)-2-[4(methoxyethanoyloxy)phenyl]-benzo[b]thien-3-yl [4-[2-(piperidin-1-yl)ethoxy]phenyl]-methanone]
inhibition in vivo at 1 mg/kg [2, 7]: 21%

Uterine Weight ([3]; 1 mg/kg): 198 ± 9 mg | clearance from the bloodstream [5]: cleared quickly from the bloodstream | parent compound in the serum [5]: not detected | Epithelial Height (ovariectomized rats): 1.67 | Myometrial Thickness (ovariectomized rats): 5.42 | Stromal Eosinophils (ovariectomized rats): 1.17 | Stromal Expansion (ovariectomized rats): 14.00 | eosinophil infiltration into the stromal layer of the uterus, in words (ovariectomized rats; ovariectomized rats): did not cause any increase
SMILES: Cl.O=C(c1ccc(OCCN2CCCCC2)cc1)c1c(-c2ccc(O)cc2)sc2cc(O)ccc12 [raloxifene, 6-hydroxy-2-(4-hydroxyphenyl)-benzo[b]thien-3-yl-4-[2-(piperidin-1-yl)ethoxyphenyl]-methanone hydrochloride]
Bone Density ([2]; Table 4 Experiment B, ovex rats, raloxifene 1 mg/kg alone): 198 ± 11 mg/cm/cm | Bone Density [2, 8]: 207 ± 13 mg/cm/cm | prevention of bone loss (femur density), in words ([2]; ovariectomized rats, hydrochloride): prevented bone loss in a dose dependent manner; also recorded: significantly reduced bone loss; also recorded: displayed the ability to prevent reduction of femur density | effect on the protective effect of estrogen on bone density ([2]; ovariectomized rats, given in combination with ethynyl estradiol): did not appreciably reduce the protective effect of the estrogen on bone density | Bone Density ([2]; ovex rats, 0.01 mg/kg oral, 35 days, five assays combined, thirty rats, mean ± SEM (Table 3)): 176 ± 3 mg/cm/cm | Bone Density ([2]; ovex rats, 0.10 mg/kg oral, 35 days, five assays combined, thirty rats, mean ± SEM (Table 3)): 197 ± 3 mg/cm/cm | Bone Density ([2]; ovex rats, 1.00 mg/kg oral, 35 days, five assays combined, thirty rats, mean ± SEM (Table 3)): 201 ± 3 mg/cm/cm | Bone Density ([2]; ovex rats, 10.00 mg/kg oral, 35 days, five assays combined, thirty rats, mean ± SEM (Table 3)): 199 ± 3 mg/cm/cm | inhibition of the normal uterotrophic response to estradiol [4]: maximally active | inhibition of uterine uptake of tritiated-estradiol [4]: maximally active | conjugation following oral administration [5]: extensively conjugated to the glucuronidated form | thickness of the stroma and myometrium, in words (ovariectomized rats; ovariectomized rats): an increase in these measurements that was much less than the effect of estrogen | total score of estrogenicity (compilation of all four parameters) (ovariectomized rats; ovariectomized rats): significantly less estrogenic than tamoxifen | epithelial height, in words (ovariectomized rats; ovariectomized rats, oral): only at one dose was there any statistically measurable increase in epithelial height over the ovariectomized controls

uterine weight, in words [3]: approached those of the intact controls
SMILES: C#C[C@]1(O)CC[C@H]2[C@@H]3CCc4cc(O)ccc4[C@H]3CC[C@@]21C [EE2, ethynyl estradiol, reference compound]
Bone Density ([2]; Table 4 Experiment A, ovex rats, EE2 100 μg/kg oral): 202 ± 6 mg/cm/cm | Bone Density ([2]; Table 4 Experiment B, ovex rats, EE2 100 μg/kg oral): 215 ± 11 mg/cm/cm | Bone Density ([2]; Table 5, ovex rats, 100 μg/kg oral): 212 ± 10 mg/cm/cm | prevention of bone loss (femur density), in words ([2]; ovariectomized rats): prevented this loss of bone in a dose dependent manner | Bone Density ([2]; ovex rats, 100 μg/kg oral daily 35 days, five experiments accumulated, mean of thirty rats ± SEM (Table 2)): 210 ± 4 mg/cm/cm | eosinophil infiltration into the stromal layer of the uterus, in words (ovariectomized rats; rat, in vivo): caused a large increase in eosinophil infiltration | epithelial height, in words (ovariectomized rats; rat, in vivo, po): increased epithelial height to a thickness greater than intact rats

% Uterine Weight Gain ([1]; ovex rats, 1 mg/kg oral): 25%
SMILES: O=C(Oc1ccccc1)Oc1ccc(-c2sc3cc(OC(=O)Oc4ccccc4)ccc3c2C(=O)c2ccc(OCCN3CCCCC3)cc2)cc1 [Compound 16, 6-(Phenyloxycarbonyloxy)-2-[4(phenyloxycarbonyloxy)phenyl]-benzo[b]thien-3-yl[4-[2-(piperidin-1-yl)ethoxy]phenyl]-methanone hydrochloride]
inhibition in vivo at 1 mg/kg [2, 7]: 108%

Uterine Weight [1, 8]: 216 ± 18 mg | uterine weight, in words ([1]; ovariectomized rats, oral): only modest uterotrophic activity | Epithelial Height (ovariectomized rats): 2.58 | Myometrial Thickness (ovariectomized rats): 5.50 | Stromal Eosinophils (ovariectomized rats): 2.83 | Stromal Expansion (ovariectomized rats): 14.17 | eosinophil infiltration into the stromal layer of the uterus, in words (ovariectomized rats; ovariectomized rats): caused a significant increase | increase in epithelial height over the response seen with raloxifene (ovariectomized rats; ovariectomized rats, all doses given): six-fold
SMILES: CC/C(=C(\c1ccccc1)c1ccc(OCCN(C)C)cc1)c1ccccc1 [tamoxifen]
inhibition of bone loss [6]: has been shown to inhibit bone loss | Bone Density [2, 8]: 204 ± 7 mg/cm/cm | prevention of bone loss (femur density), in words ([2]; ovariectomized rats): displayed the ability to prevent reduction of femur density | thickness of the stroma and myometrium, in words (ovariectomized rats; ovariectomized rats): an increase in these measurements that was much less than the effect of estrogen | epithelial height, in words (ovariectomized rats; ovariectomized rats, oral): increased epithelial height equal to that of an intact rat

Source: US6906086B2, “Methods for inhibiting bone loss” (Eli Lilly and Company, priority 1992, dated 2005)
